From patent US5225436A, “Aryl substituted naphthalene derivatives” (Schering Corporation, priority 1991, dated 1993)
Counter-ions that a name gives are not always drawn. Like-named read-outs stand apart in the source and are kept apart here.

Assays:
[1] = tested on: arachidonic acid induced mouse ear inflammation; test: Arachidonic acid mouse ear test; format: in vivo, mouse (Charles River, female, CD, (SD) BR); conditions: 1 mg/ear, topical, 30 minutes prior to AA challenge
Method: Charles River, female, CD, (SD) BR mice, 6 weeks old, are caged 8/group and allowed to acclimate 1-3 weeks prior to use.
Arachidonic acid (AA) is dissolved in reagent grade acetone (2 mg/.01 ml) and stored at -20° C. for a maximum of 1 week prior to use. Inflammatory reactions are induced by applying […] of AA to both surfaces of one ear ([…] total).
Test drugs are dissolved in either reagent grade acetone or aqueous ethanol (only if insoluble in acetone) at the same doses selected by Opas et al., Fed. Proc. 43, Abstract 2983, p. 1927 (1984) and Young et al., J. Invest. Dermatol. 82, pp. 367-371 (1984). These doses are employed to ensure maximum responses and to overcome any difference in topical absorption which could occur with any drug applied in an aqueous ethanol vehicle. The test drug is applied 30 minutes prior to challenge with AA.
The severity of the inflammation is measured as a function of increased ear weight. A 6 mm punch biopsy is removed 1 hour after AA challenge and weighed to the nearest 0.1 mg. Mean ± standard error and all possible comparisons are made via Duncan's Multiple Range Statistic.

[2] = tested on: SRS-A / leukotriene release from antigen-challenged, sensitized guinea pig lung; test: Inhibition of SRS-A (leukotriene) release from antigen-challenged, sensitized guinea pig lung; format: cell-based; conditions: Cavia porcellus
Outline: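 Chopped sensitized guinea pig lung fragments (~400 mg) preincubated with or without compound 12 min at 37° C in Tyrode's with 10 mM cysteine, then challenged with 20 μg/ml ovalbumin (final) for 15 min. Ethanol-extracted supernatant leukotrienes measured by [3H]LTC4 RIA (55% LTD4 cross-reactivity); % inhibition versus the same lung without compound.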

[3] = biological target: T1, 5-lipoxygenase (Mus musculus, UniProt P48999); test: 5-Lipoxygenase assay (murine mast cell clone MC-9); format: cell-based; conditions: MC9, 5 min, MC-9 cell
T1 construct: The IL-3-dependent murine mast cell clone, MC-9, was used to test the effects; endogenous in cells; host or cells: MC-9 (IL-3-dependent murine mast cell clone)
T1 sequence (P48999 1-674): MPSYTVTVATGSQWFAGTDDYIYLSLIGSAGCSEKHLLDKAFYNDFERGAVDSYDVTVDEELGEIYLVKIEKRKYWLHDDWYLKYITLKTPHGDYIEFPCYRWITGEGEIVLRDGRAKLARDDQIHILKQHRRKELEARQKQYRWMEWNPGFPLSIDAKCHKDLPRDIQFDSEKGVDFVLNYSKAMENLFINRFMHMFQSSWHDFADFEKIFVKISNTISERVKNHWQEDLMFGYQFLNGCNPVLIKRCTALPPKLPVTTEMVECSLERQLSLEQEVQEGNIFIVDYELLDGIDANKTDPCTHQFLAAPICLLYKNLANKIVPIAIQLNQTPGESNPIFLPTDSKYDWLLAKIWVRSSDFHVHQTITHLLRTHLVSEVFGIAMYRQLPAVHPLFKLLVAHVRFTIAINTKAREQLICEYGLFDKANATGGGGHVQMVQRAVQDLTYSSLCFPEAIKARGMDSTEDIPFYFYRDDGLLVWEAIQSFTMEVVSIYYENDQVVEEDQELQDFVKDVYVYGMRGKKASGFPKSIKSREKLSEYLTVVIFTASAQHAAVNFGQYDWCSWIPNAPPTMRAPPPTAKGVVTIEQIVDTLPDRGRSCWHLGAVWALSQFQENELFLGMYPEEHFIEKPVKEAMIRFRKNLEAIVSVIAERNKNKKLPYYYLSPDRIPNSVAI
Method: The IL-3-dependent murine mast cell clone, MC-9, was used to test the effects of representative compounds of the invention on lipoxygenase activity. The MC-9 cell line was grown in suspension culture (0.4 to 1.2×10^6 cells/ml) in RPMI 1640 medium (Gibco) with 10% fetal bovine serum (Hyclone) and 2-5% conconavalin-A conditioned supernatant (Musch et. al., (1985) Prostagandins 29, 405-4307. Cells were harvested, washed twice by centrifugation, and resuspended in a Ca^++ -free HEPES buffer (25 mM HEPES, 125 mM NaCl, 2.5 mM KCl 0.7 mM MgCl2, 0.5 mM EGTA and 10 mM glucose at pH 7.4).
MC-9 cells (0.39 ml at 7.5×10^6 cells/ml) were preincubated with dimethylsulfoxide (DMSO) vehicle with or without test compound (1 ul) for 4 minutes then incubated for 5 minutes with [^14 C] arachidonic acid (Amersham, 59 Ci/mole) at a 9 uM final concentration, and A23187 (Calbiochem) at a 1 uM final concentration was added in 10 ul of water:ethanol (9:1). The reaction was stopped by addition of methanol (0.4 ml), and cellular debris was removed by centrifugation. Aliquots (250 ul) of the incubations were run on a Waters two pump HPLC system fitted with a Waters C18, 10 u 8×100 mm u-Bondapak radial compression column and C18 "Guard Pak". The column was initially eluted at 3 ml/min with water:methanol:acetic acid (67:33:0.08) containing 1 mM EDTA adjusted to pH 6.0 with ammonium hydroxide (Pump A). At 4 minutes, a linear gradient to reach 100% methanol (Pump B) at 9 minutes was established. Between 13 and 14 minutes, methanol was exchanged for the initial eluting solvent and by 19 minutes the column had been reequilibrated for the next sample. The effluent was analyzed by a continuous flow radioactivity monitor (model ROMONA-D) interfaced with a Hewlett Packard Lab Automation System for quantitation of radioactive products. These were predominantly leukotriene C4 (LTC4) which eluted at 6 minutes, and 5-hydroxyeicosatetraenoic acid (5-HETE) which eluted at 11 minutes (Musch et. al., supra).

[4] = tested on: anaphylactic bronchospasm (antigen-induced SRS-A mediated bronchoconstriction); test: Inhibition of anaphylactic bronchospasm in sensitized guinea pigs; format: in vivo, guinea pig; conditions: Cavia porcellus, iv, 0.25 h, Dose 10 mpk, read-out: % Inhibition of anaphylactic bronchospasm
Method: The anti-allergy method of this invention is identified by tests which measure a compound's inhibition of anaphylactic bronchospams-in sensitized guinea pigs having antigen-induced SRS-A mediated bronchoconstriction. Allergic bronchospams was measured in actively sensitized guinea pigs by a modification of the procedure of Konzett and Rossler, Arch. Exptl. Pathol. Pharmakol., 194, pp. 71-74 (1940). Male Hartley guinea pigs were sensitized with 5 mg ovalbumin injected ip and 5 mg injected sc in 1 ml saline on day 1 and 5 mg ovalbumin injected ip on day 4. The sensitized animals were used 3-4 weeks later. To measure anaphylactic bronchospasm, sensitized guinea pigs were fasted overnight and the following morning were anesthetized with 0.9 ml/kp ip dialurethane. The trachea and jugular vein were cannulated and the animals were ventilated by a Harvard rodent respirator. A side arm to the tracheal cannula was connected to a Harvard pressure transducer to obtain a continuous measure of intratracheal pressure. An increase in intratracheal pressure was taken as a measure of bronchoconstriction. Each guinea pig was injected iv with 1 mg/kg propranolol, 5 mg/kg indomethacin and 2 mg/kg mepyramine given together in a volume of […]. Fifteen minutes later, the animals were challenged with antigen (0.5 percent ovalbumin) delivered as an aerosol generated from a DeVilbiss Model 65 ultrasonic nebulizer and delivered through the tracheal cannula for 30 seconds. Bronchoconstriction was measured as the peak increase in intratracheal pressure occurring within 15 minutes after antigen challenge.

inhibition at 5 µM ([3]; read-out: % Inhibition 5-HETE)	inhibition at 50 µM ([3]; read-out: % Inhibition 5-HETE)	inhibition at 5 µM ([3]; read-out: % Inhibition LTC4)	inhibition at 50 µM ([3]; read-out: % Inhibition LTC4)	inhibition at 1 µM ([3]; read-out: % Inhibition 5-HETE)	inhibition at 1 µM ([3]; read-out: % Inhibition LTC4)	inhibition at 2 µM ([3]; read-out: % Inhibition 5-HETE)	inhibition at 2 µM ([3]; read-out: % Inhibition LTC4)	SMILES	inhibition (increased ear weight) [1]	inhibition at 50 µM [2]	inhibition in vivo at 10 mg/kg [4]	inhibition at 10 µM ([2]; Dose 10 μm)	inhibition (increased ear weight) ([1]; listed as 3-(3,4-dihydroxyphenyl)-6,8-dihydroxy-4,4-dimethyl-1(4H)-naphthalenone)
43%	95%	–	–	–	–	–	–	CC1(C)C(c2ccc(O)c(O)c2)=C(O)C(=O)c2c(O)cc(O)cc21 [3-(3,4-dihydroxyphenyl)-2,6,8-trihydroxy-4,4-dimethyl-1(4H)-naphthalenone]	68%	81%	–	–	–
9%	95%	17%	100%	–	–	–	–	COc1cc(OC)c2c(c1)C(C)(C)C(c1ccc(OC)c(OC)c1)=CC2=O	–	55%	36%	–	–
53%	–	43%	–	–	–	–	–	CC(=O)Oc1cc(OC(C)=O)c2c(c1)C(C)(C)C(c1ccc(OC(C)=O)c(OC(C)=O)c1)=CC2=O [3-(3,4-diacetyloxyphenyl)-6,8-diacetyloxy-4,4-dimethyl-1(4H)-naphthalenone]	–	48%	7%	–	–
60%	–	–	–	–	–	–	–	COc1cc(O)c2c(c1)C(C)(C)C(c1ccc(O)c(O)c1)=CC2=O [3-(3,4-dihydroxyphenyl)-8-hydroxy-6-methoxy-4,4-dimethyl-1(4H)-naphthalenone]	65%	43%	–	–	–
29%	100%	36%	99%	–	–	–	–	COc1cc(OC)c2c(c1)C(C)(C)C(c1ccc(OC)c(OC)c1)CC2=O (centres unmarked) [3-(3,4-dimethoxyphenyl)-6,8-dimethoxy-4,4-dimethyl-3 4-dihydro-1(2H)-naphthalenone]	50%	62%	0%	–	–
–	–	–	–	–	–	–	–	CC1(C)C(c2ccc(O)c(O)c2)=CC(=O)c2c(O)cc(O)cc21 [trisodium salt of 3(3 4-dihydroxy-phenyl)-6,8-dihydroxy-4,4-dimethyl-1(4H)-naphthalenone]	90%	–	–	–	–
100%	–	65%	–	28%	26%	–	–	COc1cc(OC)c2c(c1)C(C)(C)C(c1ccc(OC)c(OC)c1)CC2=NO (centres unmarked)	–	75%	50%	35%	–
76%	–	–	–	–	–	52%	33%	CC1(C)C(c2ccc(O)c(O)c2)=CC(=O)c2c(O)cc(O)cc21 [3-(3,4-dihydroxyphenyl)-6,8-dihydroxy-4,4-dimethyl-1(4H)-naphthalenone]	–	77%	17%	–	60%
